# Reference: patent publication US12600716B2 (Gannex Pharma Co., Ltd., priority 2020, dated 2026)
# Legend:
# [1] = molecular target: T1, human FXR protein (Homo sapiens, UniProt Q96RI1); test: FXR agonist binding ability: time-resolved fluorescence (LanthaScreen) FXR/coactivator assay; type: biochemical; settings: GST-labeled human FXR, fluorescein-labeled coactivator, TR-FRET
# T1 construct: purchased Invitrogen
# Procedure: FXR Agonist Binding Ability Evaluation of the activation effect of the compound of the present invention with regard to the binding of FXR to its co-stimulatory factor SRC-1 was conducted by using time-resolved analytical techniques. Protein: glutathione-S-transferase (GST)-labeled human FXR protein (Invitrogen) • 2. Coactivator: Fluorescein-labeled steroid receptor coactivator (SRC2-2) (Invitrogen) • 3. Detection reagent: LanthaScreen Time-Resolved Fluorescence Analysis Kit (Invitrogen) • 1. The compound was prepared into a 10 mM DMSO stock solution and stored in a −20° C. refrigerator for a long time. • 2. The compound was diluted to 1 mM before the experiment, and then the compound was diluted 3-fold to 10 concentration points using DMSO. Then use buffer G (Invitrogen, PV4553) to dilute these 10 concentration points by 50 times to become a working fluid. Add 10 μl of each working solution to each well of a 384-well plate. • 3. Prepare a human FXR protein solution (final concentration 20 nM) in chilled buffer G and add 5 μl of human FXR protein solution to each well of a 384-well plate. • 4. Prepare a mix of buffer G containing 2 μM fluorescein-labeled steroid receptor coactivator and 20 nM GST antibody. • 5. Add 5 μl of the mixture prepared in Step 4 to a 384-well plate. • 6. Centrifuge the 384-well plate at 1000 g for 1 minute. • 7. Incubate for 1 hour at room temperature in the dark. • 8. Read the 384-well plate at 520 nm and 495 nm on an Envision 2104 plate reader. • 9. Calculate the EC50 value of the activation effect of the compound.
# [2] = molecular target: T2, hFXR-LBD-GAL4 (Homo sapiens, UniProt Q96RI1); test: FXR agonist transactivation ability: luciferase reporter gene in HEK293T; type: cell-based; settings: read-out: Cell activity
# T2 construct: GAL4 (fusion partner); host or cells: HEK293T
# T2 sequence (Q96RI1 262-486 limits assumed): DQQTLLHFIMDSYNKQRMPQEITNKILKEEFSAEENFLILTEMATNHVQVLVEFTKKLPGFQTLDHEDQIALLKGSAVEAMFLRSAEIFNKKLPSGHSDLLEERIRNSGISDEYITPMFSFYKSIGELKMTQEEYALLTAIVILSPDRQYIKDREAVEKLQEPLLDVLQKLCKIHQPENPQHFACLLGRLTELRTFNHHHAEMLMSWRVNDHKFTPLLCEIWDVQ
# Procedure: FXR Agonist Transactivation Ability
# Evaluation of the ability of the compound of the present invention to promote FXR transactivation was conducted by using luciferase reporter gene expression technology.
# • 1. Cell line: HEK293T (Invitrogen) • 2. Expression plasmid: pBIND-hFXR-LBD-GAL4 (Promega), pGL4.35-luciferase (Promega) • 3. Cell culture medium: 10% serum and penicillin/streptomycin double antibody in DMEM medium • 4. Detection reagent: Steady-Glo fluorescence detection system (Promega). • 5. Transfection reagent: TransIT-293 Transfection Reagent (MIRUS BIO)
# • 1. The compound was prepared into a 10 mM DMSO stock solution and stored in a −20° C. refrigerator for a long time. • 2. Resuscitation HEK293T cells were seeded in 10 cm culture dishes at a concentration of 5.5×10^6 and incubated for 16 hours at 37° C. in a 5% CO2 incubator. • 3. Return the transfection reagent to room temperature before transfection. The Trans-IT solution was added dropwise to Opti-MEM, and mixed by inversion for 5 minutes; the expression plasmid was added, mixed by inversion, and incubated at room temperature for 20 minutes. • 4. Add the transfection mixture from Step 3 to the prepared 10 cm dish in Step 2 and incubate for 5-6 hours in a 5% CO2 incubator. • 5. Dilute the compound 3 folds to 10 concentration points using DMSO; add 25 nl of compound per well in a 384-well plate using an Echo 550 sonic pipette; add HEK293T cells to the 384-well plate at a concentration of 15,000 cells/well; 37° C. incubate for 16-20 hours in a 5% CO2 incubator. • 6. Add 25 μl of Steady-Glo Fluorescent Reagent to each well and read the fluorescence on an Envision 2104 plate reader. • 7. Calculate the EC50 value of the activation of the compound.
smiles,measurement,setting,value
"O=C(O)c1ccc(Oc2ccc3c(OCc4c(-c5c(Cl)cccc5Cl)noc4C4CC4)cccc3c2)nc1 [Compound 36, 6-((5-((5-cyclopropyl-3-(2,6-dichlorophenyl)isoxazol-4-yl)methoxy)naphthalen-2-yl)oxy)nicotinic acid]",EC50,[1],50 to 500 nM
same,EC50,[2],> 1000 nM
"Cc1nc(Oc2ccc3c(F)c(OCc4c(-c5c(Cl)cccc5Cl)noc4C4CC4)ccc3c2)ccc1C(=O)O [Compound 37, 6-((6-((5-cyclopropyl-3-(2,6-dichlorophenyl)isoxazol-4-yl)methoxy)-5-fluoronaphthalen-2-yl)oxy)-2-methylnicotinic acid]",EC50,[1],50 to 500 nM
same,EC50,[2],> 1000 nM
"O=C(O)c1ccc(Oc2ccc3ccc(OCc4c(-c5c(Cl)cccc5Cl)noc4C4CC4)c(F)c3c2)nc1 [Compound 38, 6-((7-((5-cyclopropyl-3-(2,6-dichlorophenyl)isoxazol-4-yl)methoxy)-8-fluoronaphthalen-2-yl)oxy)nicotinic acid]",EC50,[1],< 50 nM
same,EC50,[2],500 to 1000 nM
"Cc1nc(Oc2cccc3c(F)c(OCc4c(-c5c(Cl)cccc5Cl)noc4C4CC4)ccc23)ccc1C(=O)O [Compound 39, 6-((6-((5-cyclopropyl-3-(2,6-dichlorophenyl)isoxazol-4-yl)methoxy)-5-fluoronaphthalen-1-yl)oxy)-2-methylnicotinic acid]",EC50,[1],< 50 nM
same,EC50,[2],< 200 nM
"O=C(O)c1ccc(Oc2c(Cl)cc(Cl)c3cc(OCc4c(-c5c(Cl)cccc5Cl)noc4C4CC4)ccc23)nc1 [Compound 41, 6-((2,4-dichloro-6-((5-cyclopropyl-3-(2,6-dichlorophenyl)isoxazol-4-yl)methoxy)naphthalen-1-yl)oxy)nicotinic acid]",EC50,[1],> 500 nM
same,EC50,[2],> 1000 nM
"O=C(O)c1ccc(Oc2c(Cl)ccc3cc(OCc4c(-c5c(Cl)cccc5Cl)noc4C4CC4)ccc23)nc1 [Compound 42, 6-((2-chloro-6-((5-cyclopropyl-3-(2,6-dichlorophenyl)isoxazol-4-yl)methoxy)naphthalen-1-yl)oxy)nicotinic acid]",EC50,[1],> 500 nM
same,EC50,[2],> 1000 nM
"Cc1nc(Oc2ccc3cc(OCc4c(-c5c(Cl)cccc5Cl)noc4C4CC4)ccc3c2Cl)ccc1C(=O)O [Compound 43, 6-((1-chloro-6-((5-cyclopropyl-3-(2,6-dichlorophenyl)isoxazol-4-yl)methoxy)naphthalen-2-yl)oxy)-2-methylnicotinic acid]",EC50,[1],50 to 500 nM
same,EC50,[2],500 to 1000 nM
"Cc1nc(Oc2c(Cl)ccc3cc(OCc4c(-c5c(Cl)cccc5Cl)noc4C4CC4)ccc23)ccc1C(=O)O [Compound 46, 6((2-chloro-6 ((5-cyclopropyl-3-(2,6-dichlorophenyl)isoxazol-4-yl)methoxy)naphthalen-1-yl)oxy)-2-methylnicotinic acid]",EC50,[1],50 to 500 nM
same,EC50,[2],< 200 nM
"O=C(O)c1cccnc1Oc1c(F)ccc2cc(OCc3c(-c4c(Cl)cccc4Cl)noc3C3CC3)ccc12 [Compound 48, 2-((6-((5-cyclopropyl-3-(2,6-dichlorophenyl)isoxazol-4-yl)methoxy)-2-fluoronaphthalen-1-yl)oxy)nicotinic acid]",EC50,[1],< 50 nM
same,EC50,[2],< 200 nM
O=C(O)c1c(F)cccc1Oc1cccc2cc(OCc3c(-c4c(Cl)cccc4Cl)noc3C3CC3)ccc12 [Compound 49],EC50,[1],50 to 500 nM
same,EC50,[2],> 1000 nM
